Assay results published in patent US8592610B2, “Spiroheterocyclic tetronic acid derivatives” (Bayer CropScience AG, priority 2009, dated 2013).

Legend:
[1] = log P determination by LC-MS in the acidic range (HCOOH); assay type: physicochemical; conditions: LC-MS column with aqueous formic acid/acetonitrile gradient, pH 2.7, 0.1% aqueous formic acid and acetonitrile
Experimental: The LC-MS determination in the acidic range is carried out at pH 2.7 using 0.1% aqueous formic acid and acetonitrile (contains 0.1% formic acid) as mobile phases; linear gradient from 10% acetonitrile to 95% acetonitrile.
Calibration is carried out using unbranched alkan-2-ones (with 3 to 16 carbon atoms) with known log P values (determination of the log P values by the retention times using linear interpolation between two successive alkanones).

[2] = system: green peach aphid (Myzus persicae); assay: Myzus test (MVZUPE spray treatment); assay type: in vivo; conditions: after 6 days, Chinese cabbage leaf discs
Experimental: (§1) To produce a suitable preparation of active compound, one part by weight of active compound is mixed with the stated amounts of solvents and emulsifier, and the concentrate is diluted with emulsifier-containing water to the desired concentration.
Discs of Chinese cabbage leaves (Brassica pekinensis) which are infested by all stages of the green peach aphid (Myzus persicae) are sprayed with an active compound preparation of the desired concentration.
(§2) After 6 days, the effect in percent is determined. 100% means that all aphids have been killed; 0% means that none of the aphids have been killed.

[3] = system: larvae of the mustard beetle (Phaedon cochleariae); assay: Phaedon test (PHAECO spray treatment); assay type: in vivo; conditions: application rate 500 g/ha, after 7 days, Chinese cabbage leaf discs
Experimental: [table] To produce a suitable preparation of active compound, one part by weight of active compound is mixed with the stated amounts of solvents and emulsifier, and the concentrate is diluted with emulsifier-containing water to the desired concentration. Discs of Chinese cabbage leaves (Brassica pekinensis) are sprayed with an active compound preparation of the desired concentration and, after drying, populated with larvae of the mustard beetle (Phaedon cochleariae).

[4] = system: caterpillars of the armyworm (Spodoptera frugiperda); assay: Spodoptera frugiperda test (SPODFR spray treatment); assay type: in vivo; conditions: after 6 days, maize leaf discs
Experimental: as §1
Discs of maize leaves (Zea mays) are sprayed with an active compound preparation of the desired concentration and, after drying, populated with caterpillars of the armyworm (Spodoptera frugiperda).
as §2

## CCOC(=O)C1(O)CCN(OC)CC1 [XIV-1]
[1]
  chromatographic logP: 0.94

## CON1CCC2(CC1)OC(=O)C(c1c(C)ccc(-c3ccc(F)cc3)c1C)=C2O [I-a-9]
[2]; application rate 500 g/ha
  activity (aphids killed): 100%

## CCON1CCC2(CC1)OC(=O)C(c1cc(-c3ccc(Cl)cc3)ccc1C)=C2O [I-a-13]
[2]; application rate 500 g/ha
  activity (aphids killed): 100%
[3]
  activity (beetle larvae killed): 100%

## CCc1cc(-c2ccc(Cl)cc2)cc(C)c1C1=C(O)C2(CCN(OC)CC2)OC1=O [I-a-6]
[3]
  activity (beetle larvae killed): 100%

## CCc1cc(C)cc(CC)c1C1=C(O)C2(CCN(OC)CC2)OC1=O [I-a-10]
[2]; application rate 500 g/ha
  activity (aphids killed): 100%

## CON1CCC2(CC1)OC(=O)C(c1c(C)cc(C)cc1C)=C2O [I-a-1]
[1]
  chromatographic logP: 2.15

## CCc1cc(C)cc(C)c1C1=C(O)C2(CCN(OC)CC2)OC1=O [I-a-3]
[2]; application rate 500 g/ha
  activity (aphids killed): 100%

## CON1CCC2(CC1)OC(=O)C(c1c(C)ccc(-c3ccc(Cl)cc3)c1C)=C2O [I-a-5]
[4]; application rate 500 g/ha
  activity (killed): ≥ 80%
[2]; application rate 100 g/ha
  activity (aphids killed): 100%

## CCON1CCC2(CC1)OC(=O)C(c1c(C)cc(C)cc1C)=C2O [I-a-7]
[2]; application rate 500 g/ha
  activity (aphids killed): 100%

## CCOC(=O)C1(O)CCN(OCC)CC1 [XIV-2]
[1]
  chromatographic logP: 1.16

## CCOC(=O)C1(OC(=O)Cc2c(C)cc(C)cc2C)CCN(OC)CC1 [II-1]
[1]
  chromatographic logP: 4.28

## CON1CCC2(CC1)OC(=O)C(c1cc(-c3ccc(Cl)cc3)ccc1C)=C2O [I-a-4]
[2]; application rate 500 g/ha
  activity (aphids killed): 100%
[3]
  activity (beetle larvae killed): 100%

## CCON1CCC2(CC1)OC(=O)C(c1c(CC)cc(C)cc1CC)=C2O [I-a-11]
[2]; application rate 500 g/ha
  activity (aphids killed): 100%

## CCON1CCC2(CC1)OC(=O)C(c1c(C)ccc(-c3ccc(Cl)cc3)c1C)=C2O [I-a-12]
[4]; application rate 100 g/ha
  activity (killed): ≥ 100%
[2]; application rate 500 g/ha
  activity (aphids killed): 100%
